Data from US20250101028A1, “HETEROCYCLIC COMPOUNDS, COMPOSITIONS THEREOF, AND METHODS OF TREATMENT THEREWITH” (BeiGene, Ltd., priority 2022, published 2025).

Target: T1, GST-tagged GDP-loaded KRAS G12V (amino acids 1-169) (Homo sapiens, UniProt P01116, G12V)
T1 construct: GST-tagged GDP-loaded KRAS G12V (amino acids 1-169); made in house; host or cells: E. coli
Assay: KRAS G12V probe displacement assay (TR-FRET)
Format: binding
Conditions: displacement of biotinylated probe 2 from GDP-loaded KRAS G12V
Protocol: KRAS WT and KRAS G12V Probe Displacement Assay
This assay was used to identify compounds which bind to GDP-loaded KRAS protein and are able to displace a biotinylated probe occupying the KRAS binding site. GST-tagged GDP-loaded WT KRAS (amino acids 1-169) and GST-tagged GDP-loaded KRAS G12V (amino acids 1-169) were expressed in E. coli and purified in house. All protein and reaction solutions were prepared in assay buffer containing 50 mM HEPES pH7.5, 50 mM NaCl, 1 mM MgCl2, 1 mM TCEP, 0.01% BSA, and 0.008% Brij-35. Purified WT KRAS (3 nM final concentration) or KRAS G12V protein (2 nM final concentration) was incubated with a 3-fold serially diluted compound in the assay plate (384 well microplate, black, Corning). Plates are incubated at 24° C. for 1 hr. Following the incubation, biotinylated probe 1 (60 nM final assay concentration) for WT KRAS and biotinylated probe 2 (2.5 nM final assay concentration) for KRAS G12V was added to the assay plate, respectively. After 1 hr incubation at 24° C., Mab Anti-GST-Tb cryptate (Cisbio) and Streptavidin-XL665 (Cisbio) were added and further incubated at 24° C. for another 1 hr. The TR-FRET signals (ex337 nm, em665 nm/620 nm) were read on BMG PHERAstar FSX instrument. The inhibition percentage of KRAS protein binding with biotinylated probe in presence of increasing concentrations of compounds was calculated based on the ratio of fluorescence at 665 nm to that at 620 nm. The IC50 value of each compound was calculated from fitting the data to the four-parameter logistic model by Dotmatics.

T1 sequence (P01116 1-169 isoform P01116-2 G12V): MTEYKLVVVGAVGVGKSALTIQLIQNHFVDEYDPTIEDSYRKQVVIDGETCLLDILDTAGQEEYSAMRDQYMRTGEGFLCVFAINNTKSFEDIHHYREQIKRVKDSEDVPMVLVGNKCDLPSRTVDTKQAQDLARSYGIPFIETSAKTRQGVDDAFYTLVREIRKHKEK

Row | Compound | IC50
1 | CC1(O)CN(c2nc(OC[C@@]34CCCN3C[C@H](F)C4)nc3c(F)c(-c4ccc(F)c5sc(N)nc45)c(C(F)(F)F)cc23)C1 [Example 46, 1-(7-(2-amino-7-fluorobenzo[d]thiazol-4-yl)-8-fluoro-2-(((2R,7aS)-2-fluorotetrahydro-1H-pyrrolizin-7a(5H)-yl)methoxy)-6-(trifluoromethyl)quinazolin-4-yl)-3-methylazetidin-3-ol] | 0.0071 µM
2 | CC1CC(C#N)CCN1c1nc(OC[C@@]23CCCN2C[C@H](F)C3)nc2c(F)c(-c3cc(N)cc(Cl)c3C(F)(F)F)ncc12 (stereo partly drawn) [Example 124, 1-(7-(5-amino-3-chloro-2-(trifluoromethyl)phenyl)-8-fluoro-2-(((2R,7aS)-2-fluorotetrahydro-1H-pyrrolizin-7a(5H)-yl)methoxy)pyrido[4,3-d]pyrimidin-4-yl)-2-methylpiperidine-4-carbonitrile] | 0.015 µM
3 | C[C@H]1COC[C@H](C)N1c1nc(OC[C@@]23CCCN2C[C@H](F)C3)nc2c(F)c(-c3cc(N)cc(Cl)c3C(F)(F)F)ncc12 [Example 118, 3-chloro-5-(4-((3S,5S)-3,5-dimethylmorpholino)-8-fluoro-2-(((2R,7aS)-2-fluorotetrahydro-1H-pyrrolizin-7a(5H)-yl)methoxy)pyrido[4,3-d]pyrimidin-7-yl)-4-(trifluoromethyl)aniline] | 0.023 µM
4 | Nc1nc2c(-c3c(C(F)(F)F)cc4c(N5CC[C@@H](CO)C5)nc(OC[C@@]56CCCN5C[C@H](F)C6)nc4c3F)ccc(F)c2s1 [Example 65, ((3R)-1-(7-(2-amino-7-fluorobenzo[d]thiazol-4-yl)-8-fluoro-2-(((2R,7aS)-2-fluorotetrahydro-1H-pyrrolizin-7a(5H)-yl)methoxy)-6-(trifluoromethyl)quinazolin-4-yl)pyrrolidin-3-yl)methanol] | 0.0041 µM
5 | Nc1nc2c(-c3c(C(F)(F)F)cc4c(N5CC[C@@H](O)C5)nc(OC[C@@]56CCCN5C[C@H](F)C6)nc4c3F)ccc(F)c2s1 [Example 63, (3R)-1-(7-(2-amino-7-fluorobenzo[d]thiazol-4-yl)-8-fluoro-2-(((2R,7aS)-2-fluorotetrahydro-1H-pyrrolizin-7a(5H)-yl)methoxy)-6-(trifluoromethyl)quinazolin-4-yl)pyrrolidin-3-ol] | 0.011 µM
6 | Nc1nc2c(-c3c(C(F)(F)F)cc4c(NC5C6CCCC65)nc(OC[C@@]56CCCN5C[C@H](F)C6)nc4c3F)ccc(F)c2s1 (stereo partly drawn) [Example 8, 4-(4-(bicyclo[3.1.0]hexan-6-ylamino)-8-fluoro-2-(((2R,7aS)-2-fluorotetrahydro-1H-pyrrolizin-7a(5H)-yl)methoxy)-6-(trifluoromethyl)quinazolin-7-yl)-7-fluorobenzo[d]thiazol-2-amine] | 0.043 µM
7 | CS(=O)(=O)C1CN(c2nc(OC[C@@]34CCCN3C[C@H](F)C4)nc3c(F)c(-c4ccc(F)c5sc(N)nc45)c(C(F)(F)F)cc23)C1 [Example 44, 7-fluoro-4-(8-fluoro-2-(((2R,7aS)-2-fluorotetrahydro-1H-pyrrolizin-7a(5H)-yl)methoxy)-4-(3-(methylsulfonyl)azetidin-1-yl)-6-(trifluoromethyl)quinazolin-7-yl)benzo[d]thiazol-2-amine] | 0.014 µM
8 | Nc1nc2c(-c3c(C(F)(F)F)cc4c(NC5CC6(CCC6)C5)nc(OC[C@@]56CCCN5C[C@H](F)C6)nc4c3F)ccc(F)c2s1 [Example 22, 7-fluoro-4-(8-fluoro-2-(((2R,7aS)-2-fluorotetrahydro-1H-pyrrolizin-7a(5H)-yl)methoxy)-4-(spiro[3.3]heptan-2-ylamino)-6-(trifluoromethyl)quinazolin-7-yl)benzo[d]thiazol-2-amine] | 0.367 µM
9 | C[C@@H]1CCN(c2nc(OC[C@@]34CCCN3C[C@H](F)C4)nc3c(F)c(-c4ccc(F)c5sc(N)nc45)c(C(F)(F)F)cc23)C1 [Example 54, 7-fluoro-4-(8-fluoro-2-(((2R,7aS)-2-fluorotetrahydro-1H-pyrrolizin-7a(5H)-yl)methoxy)-4-((R)-3-methylpyrrolidin-1-yl)-6-(trifluoromethyl)quinazolin-7-yl)benzo[d]thiazol-2-amine] | 0.041 µM
10 | N#CCN1CC2(CCN(c3nc(OC[C@@]45CCCN4C[C@H](F)C5)nc4c(F)c(-c5ccc(F)c6sc(N)nc56)c(C(F)(F)F)cc34)CC2)OC1=O [Example 89, 2-(8-(7-(2-amino-7-fluorobenzo[d]thiazol-4-yl)-8-fluoro-2-(((2R,7aS)-2-fluorotetrahydro-1H-pyrrolizin-7a(5H)-yl)methoxy)-6-(trifluoromethyl)quinazolin-4-yl)-2-oxo-1-oxa-3,8-diazaspiro[4.5]decan-3-yl)acetonitrile] | 0.0024 µM
11 | Cc1cc(N)nc(-c2c(Cl)cc3c(N4CCOC[C@@H]4C)nc(OC[C@@]45CCCN4C[C@H](F)C5)nc3c2F)c1C(F)(F)F [Example 105, 6-(6-chloro-8-fluoro-2-(((2R,7aS)-2-fluorotetrahydro-1H-pyrrolizin-7a(5H)-yl)methoxy)-4-((S)-3-methylmorpholino)quinazolin-7-yl)-4-methyl-5-(trifluoromethyl)pyridin-2-amine] | 0.025 µM
12 | Nc1nc2c(-c3c(C(F)(F)F)cc4c(N5CCC6(CC5)CN(CC5CC5)C(=O)O6)nc(OC[C@@]56CCCN5C[C@H](F)C6)nc4c3F)ccc(F)c2s1 [Example 92, 8-(7-(2-amino-7-fluorobenzo[d]thiazol-4-yl)-8-fluoro-2-(((2R,7aS)-2-fluorotetrahydro-1H-pyrrolizin-7a(5H)-yl)methoxy)-6-(trifluoromethyl)quinazolin-4-yl)-3-(cyclopropylmethyl)-1-oxa-3,8-diazaspiro[4.5]decan-2-one] | 0.0028 µM
13 | C[C@]1(O)CCCN(c2nc(OC[C@@]34CCCN3C[C@H](F)C4)nc3c(F)c(-c4ccc(F)c5sc(N)nc45)c(C(F)(F)F)cc23)C1 [Example 79, (3S)-1-(7-(2-amino-7-fluorobenzo[d]thiazol-4-yl)-8-fluoro-2-(((2R,7aS)-2-fluorotetrahydro-1H-pyrrolizin-7a(5H)-yl)methoxy)-6-(trifluoromethyl)quinazolin-4-yl)-3-methylpiperidin-3-ol] | 0.028 µM
14 | CC1CN(c2nc(OC[C@@]34CCCN3C[C@H](F)C4)nc3c(F)c(-c4ccc(F)c5sc(N)nc45)c(C(F)(F)F)cc23)C1 [Example 34, 7-fluoro-4-(8-fluoro-2-(((2R,7aS)-2-fluorotetrahydro-1H-pyrrolizin-7a(5H)-yl)methoxy)-4-(3-methylazetidin-1-yl)-6-(trifluoromethyl)quinazolin-7-yl)benzo[d]thiazol-2-amine] | 0.052 µM
15 | CC[C@@H]1COCCN1c1nc(OC[C@@]23CCCN2C[C@H](F)C3)nc2c(F)c(-c3cc(N)cc(Cl)c3C(F)(F)F)ncc12 [Example 117, 3-chloro-5-(4-((R)-3-ethylmorpholino)-8-fluoro-2-(((2R,7aS)-2-fluorotetrahydro-1H-pyrrolizin-7a(5H)-yl)methoxy)pyrido[4,3-d]pyrimidin-7-yl)-4-(trifluoromethyl)aniline] | 0.012 µM
16 | Nc1nc2c(-c3c(C(F)(F)F)cc4c(N5CC[C@@H]5CO)nc(OC[C@@]56CCCN5C[C@H](F)C6)nc4c3F)ccc(F)c2s1 [Example 49, ((2R)-1-(7-(2-amino-7-fluorobenzo[d]thiazol-4-yl)-8-fluoro-2-(((2R,7aS)-2-fluorotetrahydro-1H-pyrrolizin-7a(5H)-yl)methoxy)-6-(trifluoromethyl)quinazolin-4-yl)azetidin-2-yl) methanol] | 0.003 µM
17 | Nc1nc2c(-c3c(C(F)(F)F)cc4c(NC5CC(F)(F)C5)nc(OC[C@@]56CCCN5C[C@H](F)C6)nc4c3F)ccc(F)c2s1 [Example 17, 4-(4-((3,3-difluorocyclobutyl)amino)-8-fluoro-2-(((2R,7aS)-2-fluorotetrahydro-1H-pyrrolizin-7a(5H)-yl)methoxy)-6-(trifluoromethyl)quinazolin-7-yl)-7-fluorobenzo[d]thiazol-2-amine] | 0.043 µM
18 | CC(=O)N1C[C@@H]2[C@H](C1)[C@H]2Nc1nc(OC[C@@]23CCCN2C[C@H](F)C3)nc2c(F)c(-c3ccc(F)c4sc(N)nc34)c(C(F)(F)F)cc12 [Example 9, 1-((1R,5S,6s)-6-((7-(2-amino-7-fluorobenzo[d]thiazol-4-yl)-8-fluoro-2-(((2R,7aS)-2-fluorotetrahydro-1H-pyrrolizin-7a(5H)-yl)methoxy)-6-(trifluoromethyl)quinazolin-4-yl)amino)-3-azabicyclo[3.1.0]hexan-3-yl)ethan-1-one] | 0.0025 µM
19 | Nc1nc2c(-c3c(C(F)(F)F)cc4c(N5CCCC(CO)CC5)nc(OC[C@@]56CCCN5C[C@H](F)C6)nc4c3F)ccc(F)c2s1 (stereo partly drawn) [Example 85, (1-(7-(2-amino-7-fluorobenzo[d]thiazol-4-yl)-8-fluoro-2-(((2R,7aS)-2-fluorotetrahydro-1H-pyrrolizin-7a(5H)-yl)methoxy)-6-(trifluoromethyl)quinazolin-4-yl)azepan-4-yl)methanol] | 0.0023 µM
